Structures can show the parent of a compound that is named as a salt.
Experiment: Change in intraocular pressure (IOP) after administration of compound
Assay type: in vivo

## CCOc1cccc(C2CN3CCC2CC3)n1 (stereo not shown) [Description A, 3-[2-(6-Ethoxypyridin)yl]-1-azabicyclo[2.2.2]octane Hydrogen Oxalate]
Concentration 0.05%
  Change in IOP (Maximum mmHg change in intraocular pressure): -3.0 mmHg

## COc1cccc(C2CN3CCC2C3)n1 (stereo not drawn) [Description B, Endo-3-[2-(6-methoxypyridin)yl]-1-azabicyclo[2.2.1]heptane Hydrogen Oxalate]
Concentration 0.05%
  Change in IOP (Maximum mmHg change in intraocular pressure): -4.5 mmHg

## COc1cccc(C2CN3CCC2CC3)n1 (stereo not shown) [Description C, 3-[2-6-Methoxypyridin)yl]-1-azabicyclo[2.2.2]octane Dihydrochloride]
Concentration 0.05%
  Change in IOP (Maximum mmHg change in intraocular pressure): -3.0 mmHg

## Clc1cccc(C2CN3CCC2CC3)n1 (stereo not shown) [Description D, 3-[2-(6-Chloropyridin)yl]-1-azabicyclo[2.2.2]octane Hydrogen Oxalate]
Concentration 0.5%
  Change in IOP (Maximum mmHg change in intraocular pressure): -3.0 mmHg

Source: patent publication EP0492902A1, “Substituted pyridine derivatives for use in the treatment of glaucoma” (MERCK SHARP & DOHME LTD., priority 1990, dated 1992)
